Target: T1, h FPR2 (Homo sapiens, UniProt P25090)
T1 construct: expressed in transfected cells
T1 sequence (P25090 1-351): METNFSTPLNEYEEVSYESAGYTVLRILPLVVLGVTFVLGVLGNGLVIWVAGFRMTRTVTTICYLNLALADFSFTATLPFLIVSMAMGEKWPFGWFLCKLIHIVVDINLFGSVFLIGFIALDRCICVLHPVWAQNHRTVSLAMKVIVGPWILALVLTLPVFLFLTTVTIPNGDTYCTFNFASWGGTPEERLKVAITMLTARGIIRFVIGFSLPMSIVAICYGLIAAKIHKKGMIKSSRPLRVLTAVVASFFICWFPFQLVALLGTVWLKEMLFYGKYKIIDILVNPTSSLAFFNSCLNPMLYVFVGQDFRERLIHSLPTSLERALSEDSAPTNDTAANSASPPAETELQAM
Test: Agonistic activity in hFPR2-Aq-CHO cells (FLIPR Calcium 5 fluorescence assay)
Format: cell-based
Details: for EC50: 11 point half log dilution, final assay concentration from 10µM
Description: After washing, the cells are plated at 10,000 cells per well in 40 µL complete medium in a 384-well sterile clear bottom black plate and incubated in a 5% CO2 incubator at 37°C for 18 hours. Plating media is removed from each well by decanting and gentle tapping before 30 µL of 0.5X Calcium 5 dye solution (0.5X FLIPR Calcium 5 dye (Molecular devices, R8186)); HBSS; 20mM HEPES; 2.5mM Probenecid; 0.025% Pluronic F-127; pH adjusted to 7.4) is added to each well and the plate is then incubated at 37°C for 30 minutes. For the assay the plate is equilibrated at room temperature for 10 minutes before placing it in the FLIPR. Compounds are dissolved in DMSO and serially diluted over an 11 point half log (3.16 fold) dilution (2 mM to 20 nM). Compounds are then diluted 1:50 in assay buffer (HBSS; 20mM HEPES; 2.5mM Probenecid; 0.05% gelatin; 0.1% BSA; pH adjusted to 7.4) just before performing the assay. Compounds are finally added to the respective wells of the cell plate (final assay concentration 10 µM to 100 pM) using the FLIPR (e.g. FLIPR-Tetra, Molecular Devices) and fluorescence readings are captured for 5 minutes. The increase in fluorescence from the basal reading in the presence of the compounds is compared with that of the control wells (wells having no compound) to calculate the activity of the compounds. The EC50 values of the compounds can be determined using e.g. Graph pad Prism software.
Assay method for measuring agonistic activity of compounds in hFPR2-Aq-CHO cell
Cryo-vial containing 6x10^6 cells (hFPR1-Gα15-CHO or hFPR2-Aq-CHO) was thawed in a 37°C water bath. Cells were suspended in 10ml of respective complete growth media (F12(1X)HAM media (Gibco; Cat#11765); 10% HI-FBS (Gibco; Cat#10082); 0.4 mg/ml Geneticin (Gibco; Cat#10131); 0.25 mg/ml Zeocin (Invitrogen; Cat#R25001)) in a 15ml centrifuge tube. The cell viability was checked with the help of Trypan Blue dye. Upon washing the cells, those were plated in a 384-well sterile clear bottom black plate (Greiner Bioone Cat# 781091) so that, each well contained 10,000 cells in 40µl complete growth media. The plate was incubated in a 5% CO2 incubator at 37°C for 18 hours. Before assay on the next day, the cell plating media was removed from each well of the plate by decanting and gentle tapping. 30µl of 0.5X Calcium 5 dye solution (0.5X FLIPR Calcium 5 dye (Molecular devices Cat# R8186); HBSS (Invitrogen; Cat#14025); 20mM HEPES (Sigma; Cat#H0887); 2.5mM Probenecid (Sigma; Cat#P8761); 0.025% Pluronic F-127 (Sigma; Cat#P2443); pH adjusted to 7.4) was added to each well. The plate was then incubated at 37°C for 30 minutes. Following which the plate was equilibrated at room temperature for 10 minutes before placing it in a 384 well FLIPR for assay. Compounds were dissolved in DMSO and serially diluted following 11 point half log (3.16 fold) dilution with a starting concentration of 2mM (Final assay concentration 10µM). Aliquots of above mentioned each dilution was mixed with assay buffer (HBSS (Invitrogen; Cat#14025); 20mM HEPES (Sigma; Cat#H0887); 2.5mM Probenecid (Sigma; Cat#P8761); 0.05% gelatin (Sigma; Cat#G1890); 0.1% BSA (Sigma; Cat#A3059); pH adjusted to 7.4) just before performing the assay. Compounds were added to the respective wells of the assay ready cell plate with the help of the FLIPR (FLIPR Tetra) and fluorescence readings were captured for 5 minutes to measure any agonistic response of the compounds. The increase in fluorescence readings from the basal reading in presence of the compounds were compared with that of the control wells (wells having no compound) to calculate the agonistic activity of the compounds. The EC50 values of the compounds were determined using the Graph pad Prism software.

Compound	EC50	activation at 0.1 µM (agonistic response at 0.1µM)	further results
Cc1cc(NC(=O)N[C@@H]2CCN(c3cnccn3)C[C@H]2c2ccc(Cl)cn2)sn1 (relative stereo) [Ex-19, trans-1-(5-chloro-1'-pyrazin-2-yl-1',2',3',4',5',6'-hexahydro-[2,3']bipyridinyl-4'-yl)-3-(3-methyl-isothiazol-5-yl)-urea]	0.8 nM		
COc1ccc([C@@H]2CN(c3ccc(F)cc3)CC[C@H]2NC(=O)Nc2cc(C)ns2)nc1 (relative stereo) [Ex-20, trans-1-[1'-(4-fluoro-phenyl)-5-methoxy-1',2',3',4',5',6'-hexahydro-[2,3']bipyridinyl-4'-yl]-3-(3-methyl-isothiazol-5-yl)-urea]	1 nM		
Cc1cc(NC(=O)N[C@@H]2CCN(c3ccnc(C)n3)C[C@H]2c2ccc(Cl)cn2)sn1 (relative stereo) [Ex-21, trans-1-[5-chloro-1'-(2-methyl-pyrimidin-4-yl)-1',2',3',4',5',6'-hexahydro-[2,3']bipyridinyl-4'-yl]-3-(3-methyl-isothiazol-5-yl)-urea]	7 nM		
Cc1cc(CN2CC[C@@H](NC(=O)Nc3ccc(Cl)cc3)[C@H](c3ccc(Cl)cn3)C2)no1 (relative stereo) [Ex-23, trans-1-(4-chlorophenyl)-3-[3-(5-chloropyridin-2-yl)-1-[(5-methyl-1,2-oxazol-3-yl)methyl]piperidin-4-yl]urea]		28%	
COc1ccc([C@@H]2CN(c3ccncn3)C(=O)C[C@H]2NC(=O)Nc2ccc(Cl)cc2)nc1 (relative stereo) [Ex-25, trans-1-(4-chlorophenyl)-3-[5-(5-methoxypyridin-2-yl)-2-oxo-1-(pyrimidin-4-yl)piperidin-4-yl]urea]		17%	
Cc1cc(NC(=O)N[C@@H]2CCN(c3ccc(F)cc3)C[C@H]2c2ccc(Cl)cn2)sn1 (relative stereo) [Ex-26, trans-1-[5-chloro-1'-(4-fluoro-phenyl)-1',2',3',4',5',6'-hexahydro-[2,3']bipyridinyl-4'-yl]-3-(3-methyl-isothiazol-5-yl)-urea]	1 nM		
Cc1cc(NC(=O)N[C@@H]2CCN(c3cc(C(F)(F)F)ncn3)C[C@H]2c2ccc(Cl)cn2)sn1 (relative stereo) [Ex-27, trans-1-[5-chloro-1'-(6-trifluoromethyl-pyrimidin-4-yl)-1',2',3',4',5',6'-hexahydro-[2,3']bipyridinyl-4'-yl]-3-(3-methyl-isothiazol-5-yl)-urea]	6 nM		
Cc1cc(NC(=O)N[C@@H]2CCN(c3ccnc(C(F)(F)F)n3)C[C@H]2c2ccc(Cl)cn2)sn1 (relative stereo) [Ex-28, trans-1-[5-chloro-1'-(2-trifluoromethyl-pyrimidin-4-yl)-1',2',3',4',5',6'-hexahydro-[2,3']bipyridinyl-4'-yl]-3-(3-methyl-isothiazol-5-yl)-urea]	17 nM		
Cc1cc(N2CC[C@@H](NC(=O)Nc3cc(C)ns3)[C@H](c3ccc(Cl)cn3)C2)ncn1 (relative stereo) [Ex-31, trans-1-[5-chloro-1'-(6-methyl-pyrimidin-4-yl)-1',2',3',4',5',6'-hexahydro-[2,3']bipyridinyl-4'-yl]-3-(3-methyl-isothiazol-5-yl)-urea]	5 nM		
Cc1cc(NC(=O)N[C@@H]2CCN(c3cccnn3)C[C@H]2c2ccc(Cl)cn2)sn1 (relative stereo) [Ex-32, trans-1-(5-chloro-1'-pyridazin-3-yl-1',2',3',4',5',6'-hexahydro-[2,3']bipyridinyl-4'-yl)-3-(3-methyl-isothiazol-5-yl)-urea]	3 nM		
Cc1ccc(N2CC[C@@H](NC(=O)Nc3cc(C)ns3)[C@H](c3ccc(Cl)cn3)C2)nn1 (relative stereo) [Ex-33, trans-1-[5-chloro-1'-(6-methyl-pyridazin-3-yl)-1',2',3',4',5',6'-hexahydro-[2,3']bipyridinyl-4'-yl]-3-(3-methyl-isothiazol-5-yl)-urea]	11 nM		
Cc1cc(NC(=O)N[C@@H]2CCN(c3cncc(C)n3)C[C@H]2c2ccc(Cl)cn2)sn1 (relative stereo) [Ex-34, trans-1-[5-chloro-1'-(6-methyl-pyrazin-2-yl)-1',2',3',4',5',6'-hexahydro-[2,3']bipyridinyl-4'-yl]-3-(3-methyl-isothiazol-5-yl)-urea]	4 nM		
COc1ccc([C@@H]2CN(Cc3ccn(C)n3)CC[C@H]2NC(=O)Nc2ccc(Cl)cc2)nc1 (relative stereo) [Ex-40, trans-1-(4-chlorophenyl)-3-[3-(5-methoxypyridin-2-yl)-1-[(1-methyl-1H-pyrazol-3-yl)methyl]piperidin-4-yl]urea]		10%	
Cc1cnc(N2CC[C@@H](NC(=O)Nc3cc(C)ns3)[C@H](c3ccc(Cl)cn3)C2)cn1 (relative stereo) [Ex-41, trans-1-[5-chloro-1'-(5-methyl-pyrazin-2-yl)-1',2',3',4',5',6'-hexahydro-[2,3']bipyridinyl-4'-yl]-3-(3-methyl-isothiazol-5-yl)-urea]	3 nM		
Cc1cc(CN2CC[C@@H](NC(=O)Nc3ccc(Cl)cc3)[C@H](c3ccc(Cl)s3)C2)no1 (relative stereo) [Ex-45, trans-1-(4-chlorophenyl)-3-[3-(5-chlorothiophen-2-yl)-1-[(5-methyl-1,2-oxazol-3-yl)methyl]piperidin-4-yl]urea]		10%	
COc1ccc([C@@H]2CN(CC3CCOCC3)CC[C@H]2NC(=O)Nc2ccc(Cl)cc2)nc1 (relative stereo) [Ex-50, trans-1-(4-chlorophenyl)-3-[(5-methoxypyridin-2-yl)-1-(oxan-4-ylmethyl)piperidin-4-yl]urea]			h FPR2 FLIPR % @0.1µM (agonistic response at 0.1µM): 40%@0.1µM
COc1ccc([C@@H]2CN(Cc3ccn(S(C)(=O)=O)n3)CC[C@H]2NC(=O)Nc2ccccc2)nc1 (relative stereo) [Ex-59, trans-3-[1-[(1-methanesulfonyl-1H-pyrazol-3-yl)methyl]-3-(5-methoxypyridin-2-yl)piperidin-4-yl]-1-phenylurea]		26%	
COc1ccc([C@@H]2CN(Cc3ccc(C(F)(F)F)nc3)CC[C@H]2NC(=O)Nc2ccc(Cl)cc2)nc1 (relative stereo) [Ex-60, trans-1-(4-chlorophenyl)-3-(3-(5-methoxypyridin-2-yl)-1-((6-(trifluoromethyl)pyridin-3-yl)methyl)piperidin-4-yl)urea]	0.04 nM		
COc1ccc([C@@H]2CN(Cc3cnc(C)nc3)CC[C@H]2NC(=O)Nc2ccc(Cl)cc2)nc1 (relative stereo) [Ex-61, trans-1-(4-chlorophenyl)-3-[3-(5-methoxy-2-pyridyl)-1-[(2-methylpyrimidin-5-yl)methyl]-4-piperidyl]urea]	0.6 nM		
Cc1cc(NC(=O)N[C@@H]2CCN(Cc3ncccn3)C[C@H]2c2ccc(Cl)s2)sn1 (relative stereo) [Ex-63, trans-1-[3-(5-chlorothiophen-2-yl)-1-(pyrimidin-2-ylmethyl)piperidin-4-yl]-3-(3-methyl-1,2-thiazol-5-yl)urea]		44%	

Source: patent EP3789378A1, “PIPERIDINES OR PIPERIDONES SUBSTITUTED WITH UREA AND HETEROARYL” (Grünenthal GmbH, priority 2019, dated 2021)
